Measurements reported in PMC11267968 (BMC Cancer, 2024).

How the values were obtained:
[1] = test system: tumour-infiltrating lymphocytes in GL261(luc2) glioblastomas; assay: Immune response profiling of tumour-infiltrating lymphocytes by FACS; assay type: in vivo, C57BL/6J mice; conditions: day 16, AT-0174 […] mg/kg PO, TMZ 8 mg/kg IP
From the text: On day 16 post-tumour inoculation, satellite animals from each experimental group were euthanized, and tumours were collected. Tumours were processed for organ dissociation using the GentleMACS system (Miltenyi Biotec) and myelin debris removal and homogenate purification through a Percoll gradient. Tumour homogenates were then processed for immunostaining and profiling analysis by flow cytometry for the lymphoid component according to a marker panel including CD45, CD3, CD4, CD8, IFNγ, CD25, and FoxP3. For IFNγ, homogenate samples were first stimulated with a cocktail of Phorbol 12-myristate 13-acetate, Ionomycin and Brefeldin A. Briefly, to assess viability, cells were stained with LIVE/DEAD Zombie NIR (Biolegend). For simultaneous detection of the intracellular molecule, after fixed, cells were permeabilized with Foxp3 transcription factor staining buffer set according to the manufacturer’s protocol (eBioscience). All flow antibodies were obtained from BioLegend.

[2] = Body weight in orthotopic glioblastoma mice; assay type: in vivo, C57BL/6J mice; conditions: repeated treatment; AT-0174 […] mg/kg PO; TMZ 8 mg/kg IP; compared to vehicle
From the text: Starting from day 6 after tumour cell inoculation, all mice were monitored in vivo until Day 55 for tumour growth (assessed by bioluminescence and measured on days 6, 14, 21, 28, 35, 42, and 49), body weight (monitored 3 times per week until day 18, and then daily from day 19–55), and survival.

[3] = test system: subcutaneous GL2612 tumour; parameters: method as in PMID 29993291; conditions: with TMZ; mice; cited from earlier work
[4] = test system: C6 orthotopic glioma; parameters: method as in PMID 29993291; conditions: with TMZ; C6 orthotopic rat model of glioma; cited from earlier work
[5] = test system: orthotopic intracranial GL261 cell tumours; parameters: method as in PMID 26636389; conditions: cited from earlier work
[6] = test system: U87 cell xenograft; parameters: method as in PMID 26636389; conditions: U87 cell xenograft model; cited from earlier work

## Cn1nnc2c(C(N)=O)ncn2c1=O [TMZ, Temozolomide]
[1]; vs control
  Cytotoxic CD8+ T cells in tumour: non-significant increase
[1]; vs vehicle control
  Tregs (CD4+CD25+FoxP3+ cells) in tumour: higher
[2]
  Effect on body weight: mild (though non-significant) drop in body weight

## Cc1ccc(NC(=O)Nc2cc(-c3ccccc3-c3nn[nH]n3)ccc2N(CC(C)C)CC(C)C)cc1 [PCC0208009]
[3]
  Subcutaneous tumour growth: significantly synergised with TMZ
[4]
  Survival: improved survival

## Cn1cc(C[C@H](N)C(=O)O)c2ccccc21 [1-MT, 1-methyltryptophan]
[5]; TMZ in combination with 1-MT, compared to TMZ alone
  Survival duration: slight increase in the survival duration
[5]; orthotopic GL261 model, given alone
  Efficacy when given alone: ineffective
[6]
  Efficacy when given alone: ineffective
